“And” between values parts separate entries of the source, which are not always exact repeats. Equal values may be shown once. Read-outs that look alike come from different tables or passages of the source.
Experiments:
Solubility in water = assay type: physicochemical
P. aeruginosa PA14 [1] = test: Minimal inhibitory concentration (EUCAST), with or without 660 nm irradiation; assay type: cell-based, Pseudomonas aeruginosa; conditions: for MIC: read-out: MIC
Experimental: (§1) Acinetobacter baumannii DSM30011, Bacillus subtilis 168, Pseudomonas aeruginosa PA14, P. aeruginosa PAO1, Staphylococcus aureus Mu50, S. aureus Newman and S. aureus USA300 were all grown in MHB-CA at 37°C with an agitation of 180 rpm. Candida albicans SC5314 was grown in yeast extract peptone dextrose broth at 35°C with an agitation of 180 rpm.
(§2) Minimal inhibitory concentrations (MICs) for selected bacteria were investigated according to the EUCAST guidelines. Serial dilutions of the compounds, photosensitizers and aminoglycosides were made in MHB-CA in 384-well plates. Stationary-phase cells were diluted in MHB-CA to have a final concentration of 5.5 × 10^5 CFU/mL. Samples were incubated in the dark for 20 minutes at 37°C and either irradiated at 660 nm for 30 minutes with a LED device or kept in the dark. Irradiated samples received a total of 168 mJ/mm^2. Plates were then incubated at 37°C for 18 hours and MICs were evaluated visually. Triplicates were done and the synergy, or fractional inhibitory concentration (FIC), was calculated according to Doern et al., 2014: FIC = (MIC of AB)/(MIC of A) + (MIC of AB)/(MIC of B) [formula]

P. aeruginosa PAO1 [2] = test: as above; assay type: cell-based, Pseudomonas aeruginosa; conditions: for MIC: Pseudomonas aeruginosa, PAO1, light or radiation study, 18 h, read-out: MIC
Experimental: as §1, §2

S. aureus Mu50 [3] = test: as above; assay type: cell-based; conditions: Staphylococcus aureus, MU50, light or radiation study, 18 h, read-out: MIC
Experimental: as §1, §2

S. aureus USA300 [4] = test: as above; assay type: cell-based; conditions: Staphylococcus aureus, USA300, light or radiation study, 18 h
Experimental: as §1, §2

S. aureus Newman [5] = test: as above; assay type: cell-based, Staphylococcus aureus; conditions: for MIC: Staphylococcus aureus, NEWMAN, light or radiation study, 18 h, read-out: MIC
Experimental: as §1, §2

S. aureus Mu50 [6] = test: Antibacterial photodynamic therapy on planktonic cells (CFU count); assay type: cell-based, Staphylococcus aureus; conditions: for log reduction at 10 µM: Staphylococcus aureus, MU50, light or radiation study, 0.5 h, irradiated 660 nm 30 minutes, 5 J/mm^2, read-out: Mean CFU drop (survival dropped by)
Experimental: as §1
(§3) Cells were brought to stationary phase by incubating them in MHB-CA for at least 18 hours at 37°C with 180 rpm and diluted to an optical density of 1.0 just before the experiment. Cells were incubated for 20 minutes with either the compounds, photosensitizers alone, or aminoglycosides alone. Unless stated otherwise, a concentration of 10 µM was used for all experiments and samples were irradiated for 30 minutes at 660 nm with the Solis-660C lamp from ThorLabs, receiving a total of 5 J/mm^2. After illumination, cells were washed with phosphate-buffered saline (PBS) 1X, serially diluted and plated on Mueller-Hinton agar. The next day, colony forming units (CFUs) were counted.

S. aureus Newman [7] = test: as above; assay type: cell-based, Staphylococcus aureus; conditions: Staphylococcus aureus, NEWMAN, light or radiation study, 0.5 h, 10 µM, irradiated 660 nm 30 minutes, 5 J/mm^2, read-out: Mean CFU drop (survival dropped by)
Experimental: as §1, §3

S. aureus USA300 [8] = test: as above; assay type: cell-based; conditions: Staphylococcus aureus, USA300, light or radiation study, 0.5 h, irradiated 660 nm 30 minutes, 5 J/mm^2, read-out: Mean CFU drop (survival dropped by)
Experimental: as §1, §3

A. baumannii DSM30011 = test: Antibacterial photodynamic therapy on biofilm cells; assay type: cell-based, Acinetobacter baumannii
Source text: (§4) Compounds Neo-Ce6 and Tobra-Ce6 caused strong drop in survival for biofilms of A. baumannii […], P. aeruginosa species and S. aureus Mu50. […] Tobra-Ce6 had its strongest effect on A. baumannii DSM30011 with more than 4 log10 CFU/mL drop in survival and a drop of 1.7 log10 CFU/mL in P. aeruginosa PA14. Table 2: aPDT results for biofilm cells expressed in drop in the log10 CFU/mL compared to controls.

P. aeruginosa PA14 [9] = test: as above; assay type: cell-based, Pseudomonas aeruginosa
Source text: as §4

P. aeruginosa PAO1 [10] = test: as above; assay type: cell-based, Pseudomonas aeruginosa
Source text: as §4

S. aureus Mu50 [11] = test: as above; assay type: cell-based, Staphylococcus aureus
Source text: as §4

S. aureus Newman [12] = test: as above; assay type: cell-based, Staphylococcus aureus
Source text: as §4

S. aureus USA300 [13] = test: as above; assay type: cell-based, Staphylococcus aureus
Source text: as §4

[14] = test system: S. aureus USA300 persister cells; test: Antibacterial photodynamic therapy on persister cells; assay type: cell-based, Staphylococcus aureus; conditions: persister cells (6 hours, 2 mM neomycin); aPDT at 10 µM, 5 J/mm^2 (Figure 6a)
Experimental: Persister plateau and AG concentration varied from one species to another. In S. aureus USA300, a stable plateau was obtained following 6 hours of incubation with 2 mM of neomycin. […] This control is crucial to make sure that a persister state has been achieved. […] As there are no significant differences between irradiated and non-irradiated samples, however, the production of singlet oxygen may not be the factor leading to cell death. In S. aureus Newman, cells were treated for 24 hours with 1 mM of neomycin. […] Although this synergy does exist, like in S. aureus USA300, there is no significant difference in survival for irradiated and non-irradiated samples, except for Ce6.

[15] = with (+) irradiation, 660 nm 30 minutes, 168 mJ/mm^2
[16] = conjugate with irradiation, from FIC

Compound	solubility (Solubility in water)	MIC (P. aeruginosa PAO1 [2]; [15])	MIC (P. aeruginosa PAO1 [2]; without (-) irradiation)	MIC (S. aureus Mu50 [3]; [15])	MIC (S. aureus Mu50 [3]; without (-) irradiation)	MIC (S. aureus USA300 [4]; [15])	MIC (S. aureus USA300 [4]; without (-) irradiation)	MIC (S. aureus Newman [5]; [15])	MIC (S. aureus Newman [5]; without (-) irradiation)	log reduction at 10 µM (S. aureus Mu50 [6])	log reduction at 10 µM (S. aureus Newman [7])	log reduction at 10 µM (S. aureus USA300 [8])	drop in the log10 CFU/mL compared to controls (A. baumannii DSM30011; - irradiation)	drop in the log10 CFU/mL compared to controls (P. aeruginosa PA14 [9]; + irradiation)	drop in the log10 CFU/mL compared to controls (P. aeruginosa PA14 [9]; - irradiation)	drop in the log10 CFU/mL compared to controls (P. aeruginosa PAO1 [10]; + irradiation)	drop in the log10 CFU/mL compared to controls (P. aeruginosa PAO1 [10]; - irradiation)	drop in the log10 CFU/mL compared to controls (S. aureus Mu50 [11]; + irradiation)	drop in the log10 CFU/mL compared to controls (S. aureus Mu50 [11]; - irradiation)	drop in the log10 CFU/mL compared to controls (S. aureus Newman [12]; + irradiation)	also measured
C=Cc1c(C)c2cc3nc(c(CC(=O)O)c4[nH]c(cc5nc(cc1[nH]2)C(C)=C5CC)c(C)c4C(=O)O)[C@@H](CCC(=O)O)[C@@H]3C [Ce6, chlorin e6]	poorly soluble in water	> 64 µM	> 64 µM	4 µM	> 64 µM	16 to 32 µM	> 64 µM	64 µM	> 64 µM	3.2	~3.6	3.2	0.45 log10 CFU/mL	0.60 log10 CFU/mL	0.29 log10 CFU/mL	0.25 log10 CFU/mL	0.28 log10 CFU/mL	0.36 log10 CFU/mL	-0.005 log10 CFU/mL	0.57 log10 CFU/mL	MIC (P. aeruginosa PA14 [1]; Pseudomonas aeruginosa, PA14, light or radiation study, 18 h, without (-) irradiation): > 64 µM; MIC (P. aeruginosa PA14 [1]; [15]): > 64 µM; drop in the log10 CFU/mL compared to controls (A. baumannii DSM30011; + irradiation): 0.71 log10 CFU/mL; drop in the log10 CFU/mL compared to controls (S. aureus Newman [12]; - irradiation): -0.19 log10 CFU/mL; drop in the log10 CFU/mL compared to controls (S. aureus USA300 [13]; + irradiation): 0.73 log10 CFU/mL; drop in the log10 CFU/mL compared to controls (S. aureus USA300 [13]; - irradiation): 0.33 log10 CFU/mL; persister cell survival (in words) [14]: some killing
C=Cc1c(C)c2cc3nc(c(CC(=O)O)c4[nH]c(cc5nc(cc1[nH]2)C(C)=C5CC)c(C)c4C(=O)O)[C@@H](CCC(=O)NC[C@H]1O[C@H](O[C@@H]2[C@@H](O)[C@H](O[C@H]4O[C@H](CN)[C@@H](O)C[C@H]4N)[C@@H](N)C[C@H]2N)[C@H](O)[C@@H](N)[C@@H]1O)[C@@H]3C [Tobra-Ce6]	highly soluble	4 to 8 µM	> 16 µM	2 to 4 µM	16 µM	2 to 4 µM	> 16 µM	2 µM	> 16 µM	5.4	~3.9	3.5	1.58 log10 CFU/mL	1.7 log10 CFU/mL and 1.69 log10 CFU/mL	0.85 log10 CFU/mL	1.25 log10 CFU/mL	0.79 log10 CFU/mL	1.32 log10 CFU/mL	0.37 log10 CFU/mL	1.36 log10 CFU/mL	MIC (P. aeruginosa PA14 [1]; Pseudomonas aeruginosa, PA14, light or radiation study, 18 h, with (+) irradiation, 660 nm 30 minutes, 168 mJ/mm^2): > 16 µM; Synergy (P. aeruginosa PA14 [1]; [16]): -; MIC (P. aeruginosa PA14 [1]; without (-) irradiation): > 16 µM; Synergy (P. aeruginosa PAO1 [2]; [16]): -; Synergy (S. aureus Newman [5]; [16]): +; survival (in words) (S. aureus Mu50 [6]; irradiated samples, 5 J/mm^2 (Figure 3a)): high bacterial death; drop in the log10 CFU/mL compared to controls (S. aureus Newman [12]; - irradiation): 0.49 log10 CFU/mL; drop in the log10 CFU/mL compared to controls (S. aureus USA300 [13]; + irradiation): 0.14 log10 CFU/mL; drop in the log10 CFU/mL compared to controls (S. aureus USA300 [13]; - irradiation): 0.28 log10 CFU/mL; persister cell survival (in words) [14]: close to or under the detection limit

From EP4389827A1, “AMINOGLYCOSIDE-LINKED PHOTOSENSITIZERS” (Centre National de la Recherche Scientifique, priority 2022, dated 2024)
